# Like-named read-outs stand apart in the source and are kept apart here. Positions of bridges follow the written chain, without caps; N, C: chain ends. Residues, ends and D or L forms follow the SMILES beside them.
# How the values were obtained:
# SA AgrC-I [1] = target: T1, SA AgrC-I (Staphylococcus aureus, UniProt O07911); conditions: 100 nM cognate AIP; ± SEM; -b = no inhibition recorded at the highest AIP concentration tested; determined previously; ref (1); read-out: IC50, SA AgrC-I, b-lactamase assay; cited from earlier work
# T1 sequence (O07911 entry or part of it): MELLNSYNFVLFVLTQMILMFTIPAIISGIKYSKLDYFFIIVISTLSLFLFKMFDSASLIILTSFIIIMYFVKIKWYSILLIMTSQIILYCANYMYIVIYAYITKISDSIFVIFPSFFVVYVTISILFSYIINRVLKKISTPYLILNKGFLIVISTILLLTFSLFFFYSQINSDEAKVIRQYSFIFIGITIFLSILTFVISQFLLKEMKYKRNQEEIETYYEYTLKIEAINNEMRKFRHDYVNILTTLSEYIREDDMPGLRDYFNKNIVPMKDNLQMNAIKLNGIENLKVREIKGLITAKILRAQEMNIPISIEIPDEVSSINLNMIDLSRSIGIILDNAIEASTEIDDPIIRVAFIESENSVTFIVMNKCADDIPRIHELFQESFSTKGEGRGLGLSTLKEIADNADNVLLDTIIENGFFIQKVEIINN
# S. aureus agr-I = S. aureus agr-I (Staphylococcus aureus, UniProt O07911); assay: Fluorescence reporter assay for agr interference, screening and IC50 (AH1677, P3-YFP); format: cell-based; conditions: fluorescent reporter strain; peptides tested at 1000, 50, 2.5, 0.125 nM or in dose-response
# S. aureus agr-I, sequence (O07911 entry or part of it): as above
# Description: (§1) Peptides were evaluated for the ability to interfere with agr-mediated quorum sensing in S. aureus (AH1677, AH430, AH1747, and AH1872 for agr-I–IV, respectively) ([40]) using reporter strains expressing yellow fluorescent protein (YFP) upon agr activation. Interference with agr-mediated quorum sensing in S. epidermidis (AH3408, AH3623, and AH3409 for agr-I–III, respectively) ([45]), and S. lugdunensis (AH4031 for agr-I) ([37]) was evaluated using reporter strains expressing superfolder green fluorescent protein (sGFP) upon agr activation. Overnight cultures of the reporter strains were grown in TSB medium containing chloramphenicol (CAM, 10 μg/mL for S. aureus) or erythromycin (ERM, 10 μg/mL of S. epidermidis and S. lugdunensis) and diluted 1:100 in fresh TSB medium containing the same antibiotic. Assays were performed in sterile black 96-well plates with a clear bottom. […] DMSO stock solutions of peptides (1 mM) were diluted in TSB media and added (15 μL) in technical triplicate to the 96-well plate, followed by diluted bacterial overnight cultures (135 μL). […] Wells containing 150 μL TSB medium were used to measure background fluorescence. The 96-well plates were incubated in a humidified incubator at 37°C shaking at 1,000 rpm for 22–24 h and fluorescence (for GFP: excitation 479 nm, emission 520 nm; for YFP: excitation 500 nm, emission 541 nm; automatic gain), and OD600 values were subsequently measured using a plate reader. Background fluorescence was subtracted from all wells and further normalized to the corresponding OD600 value of the respective wells. The average fluorescence of control wells was used as a relative measure for 100% activation of the agr-circuit, and bar graphs were generated using GraphPad Prism 10.4 software. All assays were performed in at least a biological duplicate.
# (§2) Overnight cultures of the reporter strains were grown in TSB medium containing chloramphenicol (CAM, 10 μg/mL for S. aureus) or erythromycin (ERM, 10 μg/mL of S. epidermidis and S. lugdunensis) and diluted 1:100 in fresh TSB medium containing the same antibiotic. Assays were performed in sterile black 96-well plates with clear bottoms. Peptide solutions (15 μL) in 1:5 serial dilutions from DMSO stock solutions (1 mM) in TSB medium were added to the 96-well plate in technical duplicate followed by diluted bacterial overnight cultures (135 μL). […] Wells containing 150 μL TSB medium were used to measure background fluorescence. The 96-well plates were incubated in a humidified incubator at 37°C shaking at 1,000 rpm for 22–24 h and fluorescence (for GFP: excitation 479 nm, emission 520 nm; for YFP: excitation 500 nm, emission 541 nm; automatic gain), and OD600 values were subsequently measured using a plate reader. Background fluorescence was subtracted from all wells and further normalized to the corresponding OD600 value of the respective wells. The average fluorescence of control wells was used as a relative measure for 100% activation of the agr-circuit. Relative agr activity was plotted to obtain IC50 values by non-linear regression with variable slope using GraphPad Prism 10.4 software. All assays were performed in biological triplicate.
# S. aureus agr-II = S. aureus agr-II (Staphylococcus aureus, UniProt O33587); assay: cell-based; conditions: fluorescent reporter strain; peptides tested at 1000, 50, 2.5, 0.125 nM or in dose-response
# S. aureus agr-II, sequence (O33587 entry or part of it): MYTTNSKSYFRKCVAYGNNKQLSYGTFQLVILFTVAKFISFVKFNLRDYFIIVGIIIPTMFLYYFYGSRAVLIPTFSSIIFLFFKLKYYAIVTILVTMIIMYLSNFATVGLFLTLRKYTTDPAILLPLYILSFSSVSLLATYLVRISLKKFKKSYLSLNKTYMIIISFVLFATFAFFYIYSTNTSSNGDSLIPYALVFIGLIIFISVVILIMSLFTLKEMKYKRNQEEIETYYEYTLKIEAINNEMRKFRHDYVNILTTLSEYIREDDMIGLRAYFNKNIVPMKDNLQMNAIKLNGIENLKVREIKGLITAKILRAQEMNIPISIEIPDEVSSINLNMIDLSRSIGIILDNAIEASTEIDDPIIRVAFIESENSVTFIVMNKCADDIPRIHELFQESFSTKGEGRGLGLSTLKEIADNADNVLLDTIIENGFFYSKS
# Method in brief: (§3)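 Reporter strains, with YFP (S. aureus) or sGFP (S. epidermidis) under agr P3, were diluted 1:100 from overnight TSB cultures with antibiotic and exposed to peptides for 22–24 h at 37°C, shaking. Background-subtracted fluorescence was normalized to OD600 and expressed relative to peptide-free control wells; IC50 came from variable-slope non-linear regression.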
# S. aureus agr-III = S. aureus agr-III (Staphylococcus aureus, UniProt O33590); assay: cell-based; conditions: fluorescent reporter strain; peptides tested at 1000, 50, 2.5, 0.125 nM or in dose-response
# S. aureus agr-III, sequence (O33590 entry or part of it): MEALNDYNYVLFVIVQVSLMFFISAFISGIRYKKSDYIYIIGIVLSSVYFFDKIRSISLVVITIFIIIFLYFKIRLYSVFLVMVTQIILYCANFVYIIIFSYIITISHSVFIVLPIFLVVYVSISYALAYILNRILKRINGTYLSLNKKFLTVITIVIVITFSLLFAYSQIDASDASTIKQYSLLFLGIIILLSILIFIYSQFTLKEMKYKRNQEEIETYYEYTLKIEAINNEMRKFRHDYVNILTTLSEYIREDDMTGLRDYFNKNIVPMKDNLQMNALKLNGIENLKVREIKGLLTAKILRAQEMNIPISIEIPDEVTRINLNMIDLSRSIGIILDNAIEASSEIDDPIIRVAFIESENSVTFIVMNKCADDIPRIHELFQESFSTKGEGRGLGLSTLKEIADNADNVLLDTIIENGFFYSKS
# Method in brief: as §3
# S. lugdunensis agr-I = S. lugdunensis agr-I (Staphylococcus lugdunensis, UniProt Q8VSW5); assay: cell-based; conditions: fluorescent reporter strain; peptides tested at 1000, 50, 2.5, 0.125 nM or in dose-response
# S. lugdunensis agr-I, sequence (Q8VSW5 entry or part of it): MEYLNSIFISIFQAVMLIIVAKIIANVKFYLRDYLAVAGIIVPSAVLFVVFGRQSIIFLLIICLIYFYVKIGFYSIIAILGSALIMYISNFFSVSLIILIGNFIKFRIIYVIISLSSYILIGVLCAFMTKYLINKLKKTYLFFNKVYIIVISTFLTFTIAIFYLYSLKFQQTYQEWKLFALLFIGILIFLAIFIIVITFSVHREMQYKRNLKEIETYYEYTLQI
# Method in brief: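 37°C, 1,000 rpm, 22–24 h in TSB + CAM or ERM (10 μg/mL); 1:5 serial peptide dilutions from 1 mM DMSO stocks; fluorescence (GFP ex 479/em 520, YFP ex 500/em 541) minus blank, ÷OD600, % of untreated control; IC50 by variable-slope fit.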
# S. epidermidis agr-I = S. epidermidis agr-I (Staphylococcus epidermidis, UniProt Q5HMY3); assay: cell-based; format: cell-based; conditions: fluorescent reporter strain; peptides tested at 1000, 50, 2.5, 0.125 nM or in dose-response
# S. epidermidis agr-I, sequence (Q5HMY3 entry or part of it): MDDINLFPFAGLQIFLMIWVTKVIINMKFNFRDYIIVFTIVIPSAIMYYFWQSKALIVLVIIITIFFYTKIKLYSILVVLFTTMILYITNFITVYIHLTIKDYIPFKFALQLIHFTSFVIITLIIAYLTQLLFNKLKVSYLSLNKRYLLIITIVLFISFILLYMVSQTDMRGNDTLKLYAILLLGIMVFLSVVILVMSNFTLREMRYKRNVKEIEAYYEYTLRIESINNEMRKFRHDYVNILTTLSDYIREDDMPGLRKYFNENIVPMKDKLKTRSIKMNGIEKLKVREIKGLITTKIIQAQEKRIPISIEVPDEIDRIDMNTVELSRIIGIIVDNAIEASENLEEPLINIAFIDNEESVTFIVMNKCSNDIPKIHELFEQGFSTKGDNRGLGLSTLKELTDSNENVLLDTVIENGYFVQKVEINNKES
# Description: as §1, §2
# S. aureus agr-IV = S. aureus agr-IV (Staphylococcus aureus, UniProt Q309Z2); assay: cell-based; format: cell-based; conditions: fluorescent reporter strain; peptides tested at 1000, 50, 2.5, 0.125 nM or in dose-response
# S. aureus agr-IV, sequence (Q309Z2 entry or part of it): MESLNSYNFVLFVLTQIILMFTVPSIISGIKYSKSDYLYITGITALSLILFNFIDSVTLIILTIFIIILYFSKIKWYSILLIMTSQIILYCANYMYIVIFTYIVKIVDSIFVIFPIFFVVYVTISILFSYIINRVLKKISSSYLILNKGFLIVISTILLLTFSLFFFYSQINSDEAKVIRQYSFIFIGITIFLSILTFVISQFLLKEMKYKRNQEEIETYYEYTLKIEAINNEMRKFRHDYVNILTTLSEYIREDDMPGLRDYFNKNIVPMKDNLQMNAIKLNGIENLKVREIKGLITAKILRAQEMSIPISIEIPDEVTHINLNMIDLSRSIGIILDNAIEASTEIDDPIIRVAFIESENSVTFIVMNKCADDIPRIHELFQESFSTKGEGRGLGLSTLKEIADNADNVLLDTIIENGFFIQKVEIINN
# Method in brief: as §3
# S. epidermidis agr-II = S. epidermidis agr-II (Staphylococcus epidermidis, UniProt Q8VSX5); assay: cell-based; format: cell-based; conditions: fluorescent reporter strain; peptides tested at 1000, 50, 2.5, 0.125 nM or in dose-response
# S. epidermidis agr-II, sequence (Q8VSX5 entry or part of it): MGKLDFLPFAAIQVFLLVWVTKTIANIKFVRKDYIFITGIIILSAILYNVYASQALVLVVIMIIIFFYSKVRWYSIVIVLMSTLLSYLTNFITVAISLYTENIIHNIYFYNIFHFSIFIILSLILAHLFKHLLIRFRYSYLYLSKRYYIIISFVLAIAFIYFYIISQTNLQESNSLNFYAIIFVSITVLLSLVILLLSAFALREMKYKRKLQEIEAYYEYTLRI
# Method in brief: as §3
# S. epidermidis agr-III = S. epidermidis agr-III (Staphylococcus epidermidis, UniProt Q8VSX2); assay: cell-based; format: cell-based; conditions: fluorescent reporter strain; peptides tested at 1000, 50, 2.5, 0.125 nM or in dose-response
# S. epidermidis agr-III, sequence (Q8VSX2 entry or part of it): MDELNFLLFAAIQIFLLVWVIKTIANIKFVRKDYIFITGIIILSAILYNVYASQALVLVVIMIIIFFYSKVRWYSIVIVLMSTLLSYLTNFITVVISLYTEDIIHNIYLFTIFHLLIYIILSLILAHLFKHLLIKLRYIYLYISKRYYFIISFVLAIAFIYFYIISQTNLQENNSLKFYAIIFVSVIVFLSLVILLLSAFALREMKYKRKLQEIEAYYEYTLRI
# Method in brief: as §3
# SA AgrC-II [2] = target: T2, SA AgrC-II (Staphylococcus aureus, UniProt O33587); conditions: 100 nM cognate AIP; ± SEM; -b = no inhibition recorded at the highest AIP concentration tested; determined previously; ref (1); read-out: IC50, SA AgrC-II, b-lactamase assay; cited from earlier work
# T2 sequence (O33587 entry or part of it): as the sequence (O33587 entry or part of it) above
# SA AgrC-III [3] = target: T3, SA AgrC-III (Staphylococcus aureus, UniProt O33590); conditions: 100 nM cognate AIP; ± SEM; -b = no inhibition recorded at the highest AIP concentration tested; determined previously; ref (1); read-out: IC50, SA AgrC-III, b-lactamase assay; cited from earlier work
# T3 sequence (O33590 entry or part of it): as the sequence (O33590 entry or part of it) above
# SA AgrC-IV [4] = target: T4, SA AgrC-IV (Staphylococcus aureus, UniProt Q309Z2); conditions: 100 nM cognate AIP; ± SEM; -b = no inhibition recorded at the highest AIP concentration tested; determined previously; ref (1); read-out: IC50, SA AgrC-IV, b-lactamase assay; cited from earlier work
# T4 sequence (Q309Z2 entry or part of it): as the sequence (Q309Z2 entry or part of it) above
# SA AgrC-I [5] = target: T1, SA AgrC-I; assay: β-Lactamase assay, reporter strain RN10829 (P2-agrA:P3-blaZ) with pagrC-I; format: cell-based
# Text: The β-lactamase reporter strain RN10829 (P2-agrA:P3-blaZ) ([62]), with pagrC-I ([63]), pagrC-II, pagrC-III, or pagrC-IV ([11]), substituting the native agr locus with a chromosomal integration of P2-agrA and P3-blaZ and a plasmid from which a wild-type variant of the corresponding AgrC is expressed, was used to assess inhibition and activation of the AgrC receptor via β-lactamase activity in response to varying concentrations of the QS modulating peptides. Overnight cultures of the reporter strains in TSB medium were diluted 1:250 in fresh TSB medium and grown to OD600 = 0.35–0.40 (early exponential phase) at 37°C. Peptide solutions (10 μL) in 1:10 serial dilutions from DMSO stock solutions (1 mM) in TSB medium (final concentrations = 10 μM–10 pM) were added to each well of a clear 96-well plate as well as solutions (10 μL) of cognate AIP (final concentration = 100 nM) in TSB medium followed by 80 μL of bacterial cells. […] The 96-well plates were incubated at 37°C shaking at 200 rpm for 1 h and immediately frozen down at −80°C to minimize growth during nitrocefin treatment. Next, the 96-well plates were thawed, and OD600 values were determined using a plate reader followed by the addition of 50 μL of nitrocefin solution to the wells (final concentration = 33.3 μg/mL). β-Lactamase activity was monitored at OD486 every 20 s for 10 min at 37°C using a plate-reader. Linear nitrocefin conversion rates were plotted to obtain IC50 values by non-linear regression with variable slope using GraphPad Prism 10.4 software. Assays were performed at least as duplicate determinations in biological triplicate.
# SA AgrC-II [6] = target: T2, SA AgrC-II; assay: β-Lactamase assay, reporter strain RN10829 (P2-agrA:P3-blaZ) with pagrC-II; format: cell-based
# Text: (§4) The β-lactamase reporter strain RN10829 (P2-agrA:P3-blaZ) ([62]), with pagrC-I ([63]), pagrC-II, pagrC-III, or pagrC-IV ([11]), substituting the native agr locus with a chromosomal integration of P2-agrA and P3-blaZ and a plasmid from which a wild-type variant of the corresponding AgrC is expressed, was used to assess inhibition and activation of the AgrC receptor via β-lactamase activity in response to varying concentrations of the QS modulating peptides. Overnight cultures of the reporter strains in TSB medium were diluted 1:250 in fresh TSB medium and grown to OD600 = 0.35–0.40 (early exponential phase) at 37°C. Peptide solutions (10 μL) in 1:10 serial dilutions from DMSO stock solutions (1 mM) in TSB medium (final concentrations = 10 μM–10 pM) were added to each well of a clear 96-well plate as well as solutions (10 μL) of cognate AIP (final concentration = 100 nM) in TSB medium followed by 80 μL of bacterial cells. Control wells for 100% β-lactamase activity were wells replacing peptide solution with TSB media (10 μL), and control wells for 0% β-lactamase activity were wells replacing both peptide and cognate AIP solutions with TSB medium (20 μL). The 96-well plates were incubated at 37°C shaking at 200 rpm for 1 h and immediately frozen down at −80°C to minimize growth during nitrocefin treatment. Next, the 96-well plates were thawed, and OD600 values were determined using a plate reader followed by the addition of 50 μL of nitrocefin solution to the wells (final concentration = 33.3 μg/mL). β-Lactamase activity was monitored at OD486 every 20 s for 10 min at 37°C using a plate-reader. Linear nitrocefin conversion rates were plotted to obtain IC50 values by non-linear regression with variable slope using GraphPad Prism 10.4 software. Assays were performed at least as duplicate determinations in biological triplicate.
# SA AgrC-III [7] = target: T3, SA AgrC-III; assay: β-Lactamase assay, reporter strain RN10829 (P2-agrA:P3-blaZ) with pagrC-III; format: cell-based
# Text: as §4
# SA AgrC-IV [8] = target: T4, SA AgrC-IV; assay: β-Lactamase assay, reporter strain RN10829 (P2-agrA:P3-blaZ) with pagrC-IV; format: cell-based; conditions: 100 nM cognate AIP; ± SEM; -b = no inhibition recorded at the highest AIP concentration tested; -a = only partial inhibition observed; this study (curves in Fig. S22)
# Text: as §4
# S. aureus (SA) agr-I = conditions: b-lactamase; from supernatant; ref (16); cited from earlier work
# S. aureus (SA) agr-II = conditions: b-lactamase; from supernatant; ref (16); cited from earlier work
# S. aureus (SA) agr-III = conditions: b-lactamase; from supernatant; ref (16); cited from earlier work
# S. aureus (SA) agr-IV = conditions: b-lactamase; from supernatant; ref (16); cited from earlier work
Molecule,IC50 (SA AgrC-I [1]) [nM],"QS interaction in words (inhibition / activation), S. aureus agr-I (S. aureus agr-I)","QS interaction in words (inhibition / activation), S. aureus agr-II (S. aureus agr-II)","QS interaction in words (inhibition / activation), S. aureus agr-III (S. aureus agr-III)","QS interaction in words (inhibition / activation), S. lugdunensis agr-I (S. lugdunensis agr-I)","QS interaction in words (inhibition / activation), S. epidermidis agr-I (S. epidermidis agr-I)","QS interaction in words (inhibition / activation), S. aureus agr-IV (S. aureus agr-IV)","QS interaction in words (inhibition / activation), S. epidermidis agr-II (S. epidermidis agr-II)","QS interaction in words (inhibition / activation), S. epidermidis agr-III (S. epidermidis agr-III)",IC50 (SA AgrC-II [2]) [nM],IC50 (SA AgrC-III [3]) [nM],IC50 (SA AgrC-IV [4]) [nM],other results
S. lugdunensis AIP-II (DMCNGYF; not fully specified; cyclic: thiolactone between Cys3 side-chain thiol and C-terminal Phe7 carboxyl; free N-terminus) [compound 9],> 1000,–,–,–,–,–,–,–,–,–,–,–,–
S. chromogenes AIP-I [compound 27],–,potently inhibited,potently inhibited,potently inhibited,only weakly inhibited,potently inhibited,potently inhibited,potently inhibited,potently inhibited,200 ± 13,60 ± 13,350 ± 85,–
S. hyicus AIP-I [compound 26],–,potently inhibited,potently inhibited,potently inhibited,only weakly inhibited,potently inhibited,potently inhibited,potently inhibited,potently inhibited,350 ± 90,4 ± 0.8,180 ± 33,–
"CC[C@H](C)[C@H](NC(=O)[C@@H](N)CCCNC(=N)N)C(=O)N1CCC[C@H]1C(=O)N[C@H](C(=O)N[C@H]1COC(=O)[C@H](Cc2ccccc2)NC(=O)[C@H](Cc2ccccc2)NC(=O)CNC(=O)[C@H]([C@@H](C)O)NC1=O)[C@@H](C)O [compound 31, S. intermedius AIP-I] (H-RIPTSTGFF; ester 5-C)",–,–,–,–,–,–,–,–,–,–,–,–,"IC50 (SA AgrC-I [5]): 87 ± 20 nM; IC50 (SA AgrC-II [6]): > 1000 nM; IC50 (SA AgrC-III [7]): 104 ± 20 nM; IC50, SA AgrC-IV, b-lactamase assay (SA AgrC-IV [8]): -b; inhibition from supernatant, SA agr-I (S. aureus (SA) agr-I): 80–100%; inhibition from supernatant, SA agr-II (S. aureus (SA) agr-II): 40–90%; inhibition from supernatant, SA agr-III (S. aureus (SA) agr-III): 60–100%; inhibition from supernatant, SA agr-IV (S. aureus (SA) agr-IV): 10–60%"
S. saprophyticus AIP-I (INPCFGYT; not fully specified; cyclic: thiolactone between Cys4 side-chain thiol and C-terminal Thr8 carboxyl; free N-terminus) [compound 19],360 ± 30,–,–,–,–,–,–,–,–,–,–,–,–

# Reference: paper PMC12345137 (mBio, 2025)
